In patent US12077503B2, “Substituted cyclic amides and their use as herbicides” (FMC CORPORATION, priority 2015, dated 2024) one finds pest or weed control and plant injury data, which are given here for three molecules.

Common to all, as to format: in vivo
Test [1] deals with ducksalad (Heteranthera limosa). Description: Test B flooded paddy test. The conditions noted are these: Heteranthera limosa, Flood, 250 g ai/ha; scale of 0 to 100 where 0 is no effect and 100 is complete control; read-out: Ducksalad plant response rating. In a few lines: (§1)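 Percent control, visually estimated after 13–15 d in the greenhouse on a 0–100 basis, compares treated pots with untreated ones; compound was put into paddy water 3 cm above the soil when plants had two leaves.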

For a further test, the system named is rice (Oryra sativa). Description: Test B flooded paddy test. The conditions noted are these: Oryza sativa, Flood, 250 g ai/ha; scale of 0 to 100 where 0 is no effect and 100 is complete control; read-out: Rice plant response rating. In a few lines:
as §1

For test [2], the system named is barnyardgrass (Echinochloa crus-galli). Put plainly: Test B flooded paddy test. The conditions noted are these: Echinochloa crus-galli, Flood, 250 g ai/ha; scale of 0 to 100 where 0 is no effect and 100 is complete control; read-out: Barnyardgrass plant response rating. In a few lines:
as §1

Test [3] relates to sedge, umbrella (small-flower umbrella sedge, Cyperus difformis). Description: Test B flooded paddy test. The conditions noted are these: Cyperus difformis, Flood, 250 g ai/ha; scale of 0 to 100 where 0 is no effect and 100 is complete control; read-out: Sedge, Umbrella plant response rating. Summed up: as §1
For test [4], the system named is giant foxtail (Setaria faberii). Description: Test A preemergence. Particulars: Setaria faberi, pre-emergence, 240 h, preemergence, read-out: Plant response rating, Foxtail, Giant; for pest or weed control at 125 g/ha: 125 g ai/ha, visual rating after approx. 10 d, 0 to 100 scale where 0 is no effect and 100 is complete control; for pest or weed control at 500 g/ha: 500 g ai/ha, 0 to 100 scale, 0 = no effect, 100 = complete control. In a few lines:
(§2)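 Preemergence soil spray on seeded pots or post-emergence spray on 1–2 leaf plants, in loam–sand blend. Greenhouse ~10 d. Visual rating 0–100 against untreated plants.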

For test [5], the system named is ryegrass, Italian (Italian ryegrass, Lolium multiflorum). Put plainly: Test A preemergence. The conditions noted are these: Lolium multiflorum, pre-emergence, 240 h, preemergence, read-out: Plant response rating, Ryegrass, Italian; for pest or weed control at 125 g/ha: 125 g ai/ha, visual rating after approx. 10 d, 0 to 100 scale where 0 is no effect and 100 is complete control. In a few lines: as §2

In test [6] the test system is Kochia (Kochia scoparia). Description: Test A preemergence. The conditions noted are these: Bassia scoparia, pre-emergence, 240 h, preemergence, read-out: Plant response rating, Kochia; for pest or weed control at 125 g/ha: 125 g ai/ha, visual rating after approx. 10 d, 0 to 100 scale where 0 is no effect and 100 is complete control; for pest or weed control at 500 g/ha: 500 g ai/ha, 0 to 100 scale, 0 = no effect, 100 = complete control. In a few lines: as §2

In test [7] the test system is ragweed (common ragweed, Ambrosia elatior). Put plainly: Test A preemergence. Particulars: Ambrosia artemisiifolia, pre-emergence, 240 h, preemergence, read-out: Plant response rating, Ragweed; for pest or weed control at 125 g/ha: 125 g ai/ha, visual rating after approx. 10 d, 0 to 100 scale where 0 is no effect and 100 is complete control; for pest or weed control at 500 g/ha: 500 g ai/ha, 0 to 100 scale, 0 = no effect, 100 = complete control. In a few lines: as §2

For test [8], the system named is pigweed (Amaranthus retroflexus). Put plainly: Test A preemergence. Particulars: Amaranthus retroflexus, pre-emergence, 240 h, preemergence, read-out: Plant response rating, Pigweed; for pest or weed control at 125 g/ha: 125 g ai/ha, visual rating after approx. 10 d, 0 to 100 scale where 0 is no effect and 100 is complete control; for pest or weed control at 500 g/ha: 500 g ai/ha, 0 to 100 scale, 0 = no effect, 100 = complete control.

The test system of test [9] is barnyardgrass (Echinochloa crus-galli). Description: Test A preemergence. The conditions noted are these: Echinochloa crus-galli, pre-emergence, 240 h, preemergence, read-out: Plant response rating, Barnyardgrass; for pest or weed control at 125 g/ha: 125 g ai/ha, visual rating after approx. 10 d, 0 to 100 scale where 0 is no effect and 100 is complete control; for pest or weed control at 500 g/ha: 500 g ai/ha, 0 to 100 scale, 0 = no effect, 100 = complete control. In a few lines:
as §2

The subject of test [10] is Galium (catchweed bedstraw, Galium aparine). Put plainly: Test A postemergence. The conditions noted are these: Galium, post-emergence, 240 h, 125 g ai/ha, postemergence; visual injury after approximately 10 d; 0 to 100 scale (0 no effect, 100 complete control); read-out: Plant response rating, Galium. In a few lines:
as §2

For test [11], the system named is wheat (Triticum aestivum). Description: Test A postemergence. The conditions noted are these: Triticum aestivum, post-emergence, 240 h, 125 g ai/ha, postemergence; visual injury after approximately 10 d; 0 to 100 scale (0 no effect, 100 complete control); read-out: Plant response rating, Wheat. Summed up:
as §2

For test [12], the system named is giant foxtail (Setaria faberii). Put plainly: Test A postemergence. Particulars: Setaria faberi, post-emergence, 240 h, 125 g ai/ha, postemergence; visual injury after approximately 10 d; 0 to 100 scale (0 no effect, 100 complete control); read-out: Plant response rating, Foxtail, Giant. In a few lines:
as §2

Test [13] concerns Kochia (Kochia scoparia). Description: Test A postemergence. The conditions noted are these: Bassia scoparia, post-emergence, 240 h, 125 g ai/ha, postemergence; visual injury after approximately 10 d; 0 to 100 scale (0 no effect, 100 complete control); read-out: Plant response rating, Kochia. Summed up: as §2
The test system of test [14] is pigweed (Amaranthus retroflexus). Put plainly: Test A postemergence. The conditions noted are these: Amaranthus retroflexus, post-emergence, 240 h, 125 g ai/ha, postemergence; visual injury after approximately 10 d; 0 to 100 scale (0 no effect, 100 complete control); read-out: Plant response rating, Pigweed. Summed up: as §2

In the case of `CN1C[C@H](c2cc(F)cc(F)c2)[C@@H](C(=O)Nc2c(F)cccc2F)C1=O` [Compound 759], the pest or weed control at 250 g/ha (in test [1]; with rice (Oryra sativa); in test [2]; in test [3]) was 0% each time. Further, the pest or weed control at 125 g/ha in [4] turned out to be 70%; in [5], 0%; in the test with Kochia (Kochia scoparia) [6], 0%; in test [7], 0%; in test [8], 0%; in test [9] it was 90%. The pest or weed control at 125 g/ha in test [10] amounted to 0%; in [12] it was 20%; in the test on Kochia (Kochia scoparia) [13] it was 0%; in test [14], 0%. The pest or weed control at 500 g/ha in test [4] is 100%; in the test with Kochia (Kochia scoparia) [6] it was 20%; in [7], 0%; in test [8], 0%; in test [9], 100%. For the same molecule, the plant injury at 125 g/ha in test [11] was 0%.
In the case of `CCc1ccc([C@H]2CNC(=S)[C@@H]2C(=O)Nc2cccc(F)c2F)cc1` [Compound 762], the pest or weed control at 250 g/ha in test [1] was found to be 98%; with rice (Oryra sativa), 0%; in test [2], 0%; in [3], 0%. The pest or weed control at 125 g/ha in test [4] came out at 70%; in test [5], 20%; in the test with Kochia (Kochia scoparia) [6], 0%; in test [7], 0%; in test [8], 0%; in test [9], 100%. The pest or weed control at 125 g/ha in [10] was 0%; in test [12], 20%; in the test with Kochia (Kochia scoparia) [13] it was 0%; in [14], 0%. Further, the pest or weed control at 500 g/ha turned out to be 100% in test [4]; 50% in the test with Kochia (Kochia scoparia) [6]; 50% in [7]; 0% in test [8]; 100% in [9]. Moreover, the plant injury at 125 g/ha in test [11] amounted to 0%.
On to `O=C1NC[C@H](c2cscn2)[C@H]1C(=O)Nc1ccccc1F` [Compound 752], for which the pest or weed control at 250 g/ha (in [1]; with rice (Oryra sativa); in test [2]; in test [3]) was 0% throughout. The pest or weed control at 125 g/ha in [4] is 90%; in [5], 20%; in the test with Kochia (Kochia scoparia) [6], 60%; in test [7] it was 40%; in test [8] it was 20%; in [9], 30%. Besides, the pest or weed control at 125 g/ha amounted to 70% in test [10], 50% in [12], 40% with Kochia (Kochia scoparia) [13] and 0% in test [14]. The pest or weed control at 500 g/ha in test [4] was 90%; in test [5] (500 g ai/ha, 0 to 100 scale, 0 = no effect, 100 = complete control), 30%; in the test on Kochia (Kochia scoparia) [6], 70%; in [7], 60%; in [8] it was 40%; in test [9], 90%. The plant injury at 125 g/ha in test [11] was 0%.
